Data on seven molecules can be found in patent publication US20040116535A1, “Use” (priority 2001, published 2004).

Data set [1] concerns tinnitus. The following applies: 32 patients; 200 mg 3 times daily for 30 days; cited from earlier work.
Data set [2] relates to tinnitus.
In the next data set the test system is GABA. Particulars: cited from earlier work.
Data set [3] concerns tinnitus. The following applies: 300 mg mex per day orally for one or two weeks; cited from earlier work.
The conditions of data set [4]: cited from earlier work.
Data set [5] relates to allodynia from rat nerve root ligation. Particulars: cited from earlier work.
In the next data set the test system is allodynia. Kind of data set: Different allodynia model, i.v. injected mex enantiomers (Nordmark and Schött, unpublished observations). The format is in vivo. The following applies: 25 mg/kg i.v.
Data set [6] relates to tinnitus. The following applies: no statistically significant difference to placebo (35%); cited from earlier work.
The next data set deals with inferior colliculus. Particulars: activity believed to be representative of tinnitus; cited from earlier work.
The subject of data set [7] is tinnitus. The following applies: difference to placebo (30%) not significant; cited from earlier work.
Data set [8] has as its system tinnitus. Particulars: tocainide infusion; placebo infusion 5%; cited from earlier work.

“Also recorded” adds a separate entry of the source. Like-named read-outs stand apart in the source and are kept apart here.

Regarding “1-(2,6-dimethylphenoxy)-propanamine [mexiletine]”, in the data set on tinnitus [1], the “effect on tinnitus compared with placebo” value is listed as “not superior to placebo”. The “tinnitus intensity reduction (VAS)” value with tinnitus [2] (Case 1, 500 mg mexiletine infused over 120 min, after 118 min) is 95%. Besides, the “time after which tinnitus returned to normal” value with tinnitus [2] (Case 2, 500 mg mexiletine) came to 1 h. In addition, the “level to which tinnitus was reduced” value in the data set on tinnitus [2] (Case 2, 500 mg mexiletine, shortly before the infusion stopped) came to 60%. Also, the “time after which tinnitus returned to base level” value in the data set with tinnitus [2] (Case 2, 550 mg mexiletine over 90 min) was found to be 100 min. Moreover, in the data set with tinnitus [2] (Case 2, 550 mg mexiletine over 90 min, after 60 min), the “tinnitus (VAS)” value was “completely vanished”. Besides, the “increase in tinnitus intensity” value with tinnitus [2] (Case 2, 550 mg mexiletine over 90 min, after 214 min) is listed as “about 40%”. In addition, in the data set with tinnitus [2] (Case 3, mexiletine), the “reduction in tinnitus intensity” value is reported as “small reductions; also recorded: moderate”. The side effects result with tinnitus [2] (human, in vivo) is listed as “no side effects”. In addition, the “effect on GABA” value with GABA is reported as “stimulating effect”. Moreover, in the data set on tinnitus [3], the “patients showing no effect” value is 65% and the “subjects showing an effect above 50%” value is on record as 14.6%. Moreover, in data set [4] (after administration every 8 hours), the “difference between peak and trough” value is “more than 30%”. For the same molecule, the half-life entry in data set [4] (human, in vivo) is listed as “about 8 hours”.
For the molecule `Cc1cccc(C)c1OC[C@@H](C)N` [(R−)-mex], the “pain relief (allodynia) compared between the mex enantiomers” value in data set [5] is listed as “considerably greater”.
Turning to `Cc1cccc(C)c1OC[C@H](C)N` [(S+)-mex], in the data set with allodynia, the side effects entry is “so severe that pain measurements were not possible”.
With `NC(=O)N1c2ccccc2C=Cc2ccccc21` [carbamazepine], in the data set with tinnitus [6], the “positive results for the drug” value is 45%.
For the molecule `CCN(CC)CC(=O)Nc1c(C)cccc1C` [lidocaine], the side effects entry was “no side effects” in the data set on tinnitus [2] (Case 1, 100 mg lidocaine i.v.) and “no side effects” in the data set on tinnitus [2] (Case 3, lidocaine). In addition, the “tinnitus intensity reduction (VAS)” value in the data set with tinnitus [2] (Case 1, 100 mg lidocaine i.v. over 5 min, 70 min after the start) stood at 96%. The “time after which tinnitus returned to the initial level” value in the data set with tinnitus [2] (Case 2, lidocaine i.v.) is “about 2 min”. Besides, the “tinnitus (VAS)” value with tinnitus [2] (Case 2, lidocaine i.v., 30 s after injection) is listed as “no tinnitus”; in the data set on tinnitus [2] (Case 2, lidocaine i.v., less than one min after the start of the injection), “vanished completely”. Moreover, the “tinnitus increase above the base level” value with tinnitus [2] (Case 2, lidocaine i.v., at 30 min) worked out at 46%. Moreover, the “reduction in tinnitus intensity” value in the data set on tinnitus [2] (Case 3, lidocaine) is “small reductions; also recorded: moderate”. In addition, in the data set with inferior colliculus, the “increased spontaneous activity in the inferior colliculus” value is listed as “abolished”. Besides, the “effect on GABA” value with GABA is reported as “stimulating effect”.
On to `CNCCC=C1c2ccccc2CCc2ccccc21` [nortriptyline], for which, in the data set on tinnitus [7], the “reduction of tinnitus sensation” value is on record as 43%.
As to `Cc1cccc(C)c1NC(=O)C(C)N` (stereo not drawn) [tocainide], in the data set with GABA, the “effect on GABA” value is “stimulating effect”. Also, the “reduction in tinnitus intensity” value in the data set on tinnitus [8] is reported as 50%.
